{"source": "patent US20060154964A1", "about": "“Diarylmethylidene piperidine derivatives, preparations thereof and uses thereof” (AstraZeneca AB, priority 2003, published 2006)", "key": {"[1]": {"target": "T1, human δ receptors (Homo sapiens, UniProt P41143)", "T1 construct": "expressed in transfected cells", "T1 sequence (P41143 whole entry)": "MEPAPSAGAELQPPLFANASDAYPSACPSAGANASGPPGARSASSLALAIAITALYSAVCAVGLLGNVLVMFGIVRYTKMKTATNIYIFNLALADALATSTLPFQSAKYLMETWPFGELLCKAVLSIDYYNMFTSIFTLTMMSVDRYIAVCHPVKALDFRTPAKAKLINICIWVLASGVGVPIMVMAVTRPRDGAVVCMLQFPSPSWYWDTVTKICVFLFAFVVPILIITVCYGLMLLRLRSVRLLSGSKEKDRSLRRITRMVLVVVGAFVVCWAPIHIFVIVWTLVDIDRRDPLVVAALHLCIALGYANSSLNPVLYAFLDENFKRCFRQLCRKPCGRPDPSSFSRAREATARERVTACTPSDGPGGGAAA", "assay": "GTP[γ]35S binding functional assay, HEK-293S membranes expressing cloned human δ receptors", "format": "biochemical", "settings": "for Emax: relative to standard δ agonist SNC80", "method": "(§1) The agonist activity of the compounds is measured by determining the degree to which the compounds receptor complex activates the binding of GTP to G-proteins to which the receptors are coupled. In the GTP binding assay, GTP[γ]^35S is combined with test compounds and membranes from HEK-293S cells expressing the cloned human opioid receptors or from homogenised rat or mouse brain. Agonists stimulate GTP[γ]^35S binding in these membranes. The EC50 and Emax values of compounds are determined from dose-response curves. Right shifts of the dose response curve by the delta antagonist naltrindole are performed to verify that agonist activity is mediated through delta receptors. For human δ receptor functional assays, EC50 (low) is measured when the human δ receptors used in the assay were expressed at lower levels in comparison with those used in determining EC50 (high). The Emax values were determined in relation to the standard δ agonist SNC80, i.e., higher than 100% is a compound that have better efficacy than SNC80.\n(§2) Rat brain membranes are thawed at 37° C., passed 3 times through a 25-gauge blunt-end needle and diluted in the GTPγS binding (50 mM Hepes, 20 mM NaOH, 100 mM NaCl, 1 mM EDTA, 5 mM MgCl2, pH 7.4, Add fresh: 1 mM DTT, 0.1% BSA). 120 μM GDP final is added membranes dilutions. The EC50 and Emax of compounds are evaluated from 10-point dose-response curves done in 300 μl with the appropriate amount of membrane protein (20 μg/well) and 100000-130000 dpm of GTPγ^35S per well (0.11-0.14 nM). The basal and maximal stimulated binding are determined in absence and presence of 3 μM SNC-80. The assay performed on HEK 293s cells stably expressing cloned Delta receptors is done in a slightly different buffer (50 mM Hepes, 20 mM NaOH, 200 mM NaCl, 1 mM EDTA, 5 mM MgCl2, pH 7.4, Add fresh: 0.5% BSA, no DTT) and with a 3 μM final conc. of GDP."}, "[2]": {"target": "T1, human δ receptors", "assay": "Binding assay, cloned human δ receptor membranes (125I-Deltorphin II displacement)"}, "[3]": {"target": "T2, human κ receptors (Homo sapiens, UniProt P41145)", "T2 construct": "expressed in transfected cells; host or cells: human 293S cells, geneticin-selected", "T2 sequence (P41145 whole entry)": "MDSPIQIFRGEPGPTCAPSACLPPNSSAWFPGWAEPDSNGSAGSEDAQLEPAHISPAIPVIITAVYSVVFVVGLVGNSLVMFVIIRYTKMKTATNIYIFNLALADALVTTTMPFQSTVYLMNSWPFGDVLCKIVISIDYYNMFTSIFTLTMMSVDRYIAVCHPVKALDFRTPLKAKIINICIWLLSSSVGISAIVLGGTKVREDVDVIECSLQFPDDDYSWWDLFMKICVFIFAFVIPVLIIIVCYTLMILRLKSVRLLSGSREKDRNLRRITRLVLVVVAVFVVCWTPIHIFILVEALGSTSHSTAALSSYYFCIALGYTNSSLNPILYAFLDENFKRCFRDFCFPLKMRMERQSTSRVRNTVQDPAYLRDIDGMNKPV", "assay": "Binding assay, cloned human κ receptor membranes (125I-DPDYN displacement)"}, "[4]": {"target": "T3, human μ receptors (Homo sapiens, UniProt P35372)", "T3 construct": "expressed in transfected cells; host or cells: human 293S cells, geneticin-selected", "T3 sequence (P35372 whole entry)": "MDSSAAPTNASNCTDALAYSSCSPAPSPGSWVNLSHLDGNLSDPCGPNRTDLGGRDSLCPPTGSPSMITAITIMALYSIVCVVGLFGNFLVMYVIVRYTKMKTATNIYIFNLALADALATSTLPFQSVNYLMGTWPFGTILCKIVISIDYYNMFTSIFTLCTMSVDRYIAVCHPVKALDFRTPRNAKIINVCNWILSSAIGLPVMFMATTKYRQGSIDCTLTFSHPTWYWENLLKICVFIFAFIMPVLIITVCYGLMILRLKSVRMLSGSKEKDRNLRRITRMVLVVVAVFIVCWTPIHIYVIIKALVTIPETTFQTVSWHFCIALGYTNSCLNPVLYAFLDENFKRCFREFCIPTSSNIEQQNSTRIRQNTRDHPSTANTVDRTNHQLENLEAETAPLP", "assay": "Binding assay, cloned human μ receptor membranes (125I-FK33824 displacement)"}, "[5]": {"target": "T4, δ receptors in rat brain membranes (Rattus norvegicus, UniProt P33533)", "T4 construct": "membranes from HEK-293S cells expressing the cloned human opioid receptors or from homogenised rat or mouse brain; from tissue; host or cells: rat brain homogenate membranes", "T4 sequence (P33533 whole entry)": "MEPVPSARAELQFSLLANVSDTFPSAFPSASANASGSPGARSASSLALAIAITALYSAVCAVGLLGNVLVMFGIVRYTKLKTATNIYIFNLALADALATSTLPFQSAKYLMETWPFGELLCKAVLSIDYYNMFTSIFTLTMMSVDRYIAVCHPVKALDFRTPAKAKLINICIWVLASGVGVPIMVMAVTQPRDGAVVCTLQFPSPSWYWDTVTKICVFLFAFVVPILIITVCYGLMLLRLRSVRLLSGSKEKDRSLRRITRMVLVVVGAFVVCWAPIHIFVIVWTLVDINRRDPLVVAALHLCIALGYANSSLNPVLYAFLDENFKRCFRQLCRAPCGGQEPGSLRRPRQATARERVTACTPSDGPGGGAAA", "assay": "Rat brain GTP[γ]35S binding functional assay", "format": "biochemical", "settings": "for Emax: Table 1, rat brain membranes, relative to SNC80", "method": "Rat brains are weighed and rinsed in ice-cold PBS (containing 2.5 mM EDTA, pH 7.4). The brains are homogenized with a polytron for 30 sec (rat) in ice-cold lysis buffer (50 mM Tris, pH 7.0, 2.5 mM EDTA, with phenylmethylsulfonyl fluoride added just prior use to […] from a 0.5M stock in DMSO:ethanol).\nas §1, §2"}, "[6]": {"settings": "Table 2, lower receptor expression, read-out: Human δ % EMax (low)"}, "[7]": {"settings": "Table 2, read-out: Human κ IC50"}, "[8]": {"settings": "Table 1, higher receptor expression, read-out: Human δ % EMax (high)"}}, "note": "pEC50, pIC50: −log10 of the molar value. Like-named read-outs stand apart in the source and are kept apart here.", "data": [{"smiles": "CCN(CC)C(=O)c1ccc(C(=C2CCN(Cc3cncs3)CC2)c2cccc(NC(C)=O)c2)cc1", "note": "[Compound 9, 4-{[3-(acetylamino)phenyl][1-(1,3-thiazol-5-ylmethyl)piperidin-4-ylidene]methyl}-N,N-diethylbenzamide]", "values": [{"measurement": "Emax", "setting": "[1]; [6]", "result": "80 to 112", "unit": "%"}, {"measurement": "pIC50", "setting": "[2]", "result": "8.83 to 9.72"}, {"measurement": "pIC50", "setting": "[3]; [7]", "result": "5.04 to 5.23"}]}, {"smiles": "CCN(CC)C(=O)c1ccc(C(=C2CCN(Cc3cscn3)CC2)c2cccc(NC(C)=O)c2)cc1", "note": "[Compound 8, 4-{[3-(acetylamino)phenyl][1-(1,3-thiazol-4-ylmethel)piperidin-4-ylidene]methyl}-N,N-diethylbenzamide]", "values": [{"measurement": "Emax", "setting": "[1]; [6]", "result": "80 to 112", "unit": "%"}, {"measurement": "pIC50", "setting": "[2]", "result": "8.83 to 9.72"}, {"measurement": "pIC50", "setting": "[3]; [7]", "result": "5.04 to 5.23"}]}, {"smiles": "CCN(CC)C(=O)c1ccc(C(=C2CCN(Cc3ccncc3)CC2)c2cccc(NC(C)=O)c2)cc1", "note": "[Compound 6, 4-[[-3-(acetylamino)phenyl][1-(4-pyridinylmethyl)-4-piperidinylidene]methyl]-N,N-diethyl-benzamide]", "values": [{"measurement": "Emax", "setting": "[1]; [6]", "result": "80 to 112", "unit": "%"}, {"measurement": "pIC50", "setting": "[2]", "result": "8.83 to 9.72"}, {"measurement": "pIC50", "setting": "[3]", "result": "5.04 to 5.23"}]}, {"smiles": "CCN(CC)C(=O)c1ccc(C(=C2CCN(Cc3ccsc3)CC2)c2cccc(NC(C)=O)c2)cc1", "note": "[Compound 4, 4-[[3-(acetylamino)phenyl][1-(3-thienylmethyl)-4-piperidinylidene]methyl]-N,N-diethyl-benzamide]", "values": [{"measurement": "pEC50", "setting": "[1]", "result": "8.58 to 8.84"}, {"measurement": "Emax", "setting": "[1]; [8]", "result": "95 to 98", "unit": "%"}, {"measurement": "pIC50", "setting": "[2]", "result": "9.23 to 9.47"}, {"measurement": "pIC50", "setting": "[3]", "result": "5.10 to 5.61"}, {"measurement": "pIC50", "setting": "[4]", "result": "6.43 to 6.46"}, {"measurement": "pEC50", "setting": "[5]", "result": "7.80 to 8.14"}, {"measurement": "Emax", "setting": "[5]", "result": "126 to 137", "unit": "%"}]}, {"smiles": "CCN(CC)C(=O)c1ccc(C(=C2CCN(Cc3cccnc3)CC2)c2cccc(NC(C)=O)c2)cc1", "note": "[Compound 5, 4-[[3-(acetylamino)phenyl][1-(3-pyridinylmethyl)-4-piperidinylidene]methyl]-N,N-diethyl-benzamide]", "values": [{"measurement": "Emax", "setting": "[1]; [6]", "result": "80 to 112", "unit": "%"}, {"measurement": "pIC50", "setting": "[2]", "result": "8.83 to 9.72"}, {"measurement": "pIC50", "setting": "[3]", "result": "5.04 to 5.23"}]}, {"smiles": "CCN(CC)C(=O)c1ccc(C(=C2CCN(Cc3ccccn3)CC2)c2cccc(NC(C)=O)c2)cc1", "note": "[Compound 7, 4-{[3-(acetylamino)phenyl][1-(pyridin-2-ylmethyl)piperidin-4-ylidene]methyl}-N,N-diethylbenzamide]", "values": [{"measurement": "Emax", "setting": "[1]; [6]", "result": "80 to 112", "unit": "%"}, {"measurement": "pIC50", "setting": "[2]", "result": "8.83 to 9.72"}, {"measurement": "pIC50", "setting": "[3]; [7]", "result": "5.04 to 5.23"}]}, {"smiles": "CCN(CC)C(=O)c1ccc(C(=C2CCN(Cc3cccs3)CC2)c2cccc(NC(C)=O)c2)cc1", "note": "[Compound 1, 4-{[3-(acetylamino)phenyl][1-(thien-2-ylmethyl)piperidin-4-ylidene]methyl}-N,N-diethylbenzamide]", "values": [{"measurement": "Emax", "setting": "[1]; [6]", "result": "80 to 112", "unit": "%"}, {"measurement": "pIC50", "setting": "[2]", "result": "8.83 to 9.72"}, {"measurement": "pIC50", "setting": "[3]; [7]", "result": "5.04 to 5.23"}]}, {"smiles": "CCN(CC)C(=O)c1ccc(C(=C2CCN(Cc3ccco3)CC2)c2cccc(NC(C)=O)c2)cc1", "note": "[Compound 2, 4-{[3-(acetylamino)phenyl][1-(2-furylmethyl)piperidin-4-ylidene]methyl}-N,N-diethylbenzamide]", "values": [{"measurement": "Emax", "setting": "[1]; [6]", "result": "80 to 112", "unit": "%"}, {"measurement": "pIC50", "setting": "[2]", "result": "8.83 to 9.72"}, {"measurement": "pIC50", "setting": "[3]; [7]", "result": "5.04 to 5.23"}]}, {"smiles": "CCN(CC)C(=O)c1ccc(C(=C2CCN(Cc3ccccc3)CC2)c2cccc(NC(C)=O)c2)cc1", "note": "[Compound 3, 4-[[3-(acetylamino)phenyl][1-(phenylmethyl)-4-piperidinylidene]methyl]-N,N-diethyl-benzamide]", "values": [{"measurement": "pEC50", "setting": "[1]", "result": "8.58 to 8.84"}, {"measurement": "Emax", "setting": "[1]; [8]", "result": "95 to 98", "unit": "%"}, {"measurement": "pIC50", "setting": "[2]", "result": "9.23 to 9.47"}, {"measurement": "pIC50", "setting": "[3]", "result": "5.10 to 5.61"}, {"measurement": "pIC50", "setting": "[4]", "result": "6.43 to 6.46"}, {"measurement": "pEC50", "setting": "[5]", "result": "7.80 to 8.14"}, {"measurement": "Emax", "setting": "[5]", "result": "126 to 137", "unit": "%"}]}]}
